In PubChem BioAssay (NCI) one finds TGI and GI50 data, which are given here for 37 compounds.

Values joined by “and” are separate entries in the source; they are usually repeats but may differ in a detail not shown here. Identical values can stand only once.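 1) Cells in 96-well plates. 2) Compound, 48 h, 5 concentrations. 3) Linear interpolation between surrounding doses. 4) Unreached endpoint = highest concentration. The concentration for 50% growth inhibition is given as GI50. At the TGI there is no net growth.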 Where only a bound is given, the exact number is not on record here.

Among the test systems are M19-MEL melanoma; DMS 273 small cell lung; KM20L2 colon; LXFL 529 NSCLC; DMS 114 small cell lung; T-47D breast; MDA-N; RXF-631 renal; HOP-18 NSCLC.
Common to all, as to assay: NCI anticancer screen, dose series, 48 h

For the compound `CCOC(=O)/C(=C/c1cccc(OC)c1)N(CC)CC`, the TGI with M19-MEL melanoma, in the test with DMS 273 small cell lung, with KM20L2 colon, in the test with LXFL 529 NSCLC and in the test with DMS 114 small cell lung was greater than 100 µM in each case.

As for `C=CCO/N=C/c1cc(NC(=S)c2ccoc2C)ccc1Cl`, the figures for the TGI with T-47D breast and with MDA-N were 23.7 µM and 32.2 µM, respectively.

Regarding `CC(C)c1ccccc1NC(=O)/C(Cl)=C1/Sc2ccccc2NC1=O`, the TGI is greater than 100 µM in the test with M19-MEL melanoma; greater than 100 µM in the test with RXF-631 renal; 59.7 µM in the test on KM20L2 colon; greater than 100 µM in the test with LXFL 529 NSCLC; 53.4 µM in the test with DMS 114 small cell lung.

With `CCOC(=O)c1ccc(N[C@@H]2c3cc4c(cc3C(C3=CC(=O)C(=O)C(OC)=C3)[C@H]3C(=O)OCC32)OCO4)cc1` (stereo partly specified), the TGI turned out to be 36.4 µM with M19-MEL melanoma; 10 µM in the test on RXF-631 renal; 13.5 µM in the test with DMS 273 small cell lung; 32.1 µM in the test on KM20L2 colon; 29.4 µM in the test with LXFL 529 NSCLC; 6.89 µM with DMS 114 small cell lung.

On to `COc1ccc(Nc2nc3ccccc3nc2-c2cccs2)cc1`, for which the TGI in the test on HOP-18 NSCLC, with DMS 273 small cell lung, in the test on KM20L2 colon, in the test with LXFL 529 NSCLC and in the test on DMS 114 small cell lung was greater than 100 µM throughout.

Turning to `CC1(c2ccccc2)CC(c2ccccc2)=NO1` (stereo unspecified), the TGI in the test on M19-MEL melanoma, in the test with HOP-18 NSCLC, with DMS 273 small cell lung, in the test on LXFL 529 NSCLC and in the test on DMS 114 small cell lung was greater than 100 µM in each case.

For `Cc1ccc2c(c1)Sc1ccc(N=NN(C)C)cc1N2C`, the TGI is 85.9 µM with T-47D breast and greater than 100 µM in the test on MDA-N.

Consider `Cc1ccc2nc3c(Cl)c(C)c(=O)cc-3sc2c1`, for which the GI50 is 46.4 µM with M19-MEL melanoma, greater than 100 µM in the test on KM20L2 colon, 62.9 µM with LXFL 529 NSCLC and 25.4 µM with DMS 114 small cell lung. Also, the TGI with M19-MEL melanoma was greater than 100 µM; with DMS 273 small cell lung, greater than 100 µM; with KM20L2 colon it was greater than 100 µM; with LXFL 529 NSCLC it was greater than 100 µM; in the test with DMS 114 small cell lung, > 1 µM and 76 µM.

In the case of `O=c1c(Cl)c(Cl)cnn1CCc1ccncc1`, the TGI with M19-MEL melanoma is 30.8 µM; in the test with HOP-18 NSCLC, 34.2 µM; in the test on DMS 273 small cell lung it was 33.6 µM; with KM20L2 colon, 36.2 µM; in the test on LXFL 529 NSCLC it was 29.8 µM; in the test on DMS 114 small cell lung, 29 µM.

`CSc1c(C)c(C)nn1-c1ccccc1`: the TGI with RXF-631 renal, in the test on DMS 273 small cell lung, with KM20L2 colon, in the test with LXFL 529 NSCLC and with DMS 114 small cell lung was greater than 100 µM in each case.

For `Cc1ccccc1Nc1nc2c(s1)C(=O)c1ccccc1C2=O`, the TGI in the test with T-47D breast is 27.5 µM; in the test on M19-MEL melanoma it was 3.79 µM; in the test on MDA-N it was 3.37 µM; with HOP-18 NSCLC it was 24.9 µM; with DMS 273 small cell lung, 21.4 µM; in the test with KM20L2 colon, greater than 65.4 µM. In addition, the TGI in the test with LXFL 529 NSCLC amounted to 14.8 µM; with DMS 114 small cell lung, 4.69 µM.

In the case of `Cl[Si]1(Cl)Oc2ccccc2O[Si](Cl)(Cl)Oc2ccccc2O1`, the TGI with M19-MEL melanoma was 25.3 µM; in the test with RXF-631 renal, greater than 100 µM; in the test on DMS 273 small cell lung, 31.3 µM; in the test with KM20L2 colon it was greater than 100 µM; in the test on DMS 114 small cell lung, 6.03 µM.

As for `O=C1C2=C(c3ccccc31)C(c1ccccc1Cl)N1C(=O)CCSC1=N2` (stereo unspecified), the TGI in the test with M19-MEL melanoma, in the test with RXF-631 renal, with DMS 273 small cell lung, in the test on KM20L2 colon and in the test on DMS 114 small cell lung was greater than 100 µM throughout.

`Cc1cc(N(CCC#N)CCC#N)ccc1/C=C1N=C(/C=C/c2ccccc2)OC(=O)N\1`: the TGI in the test on M19-MEL melanoma, in the test with DMS 273 small cell lung, in the test with KM20L2 colon, in the test on LXFL 529 NSCLC and with DMS 114 small cell lung was greater than 100 µM throughout.

For `CC(=O)[O-].CC(=O)[O-].CC(=O)[O-].CC(=O)[O-].[Mo+2].[Mo+2]`, the GI50 with HOP-18 NSCLC, with DMS 273 small cell lung, with KM20L2 colon and in the test with LXFL 529 NSCLC was greater than 100 µM throughout. Moreover, the TGI in the test on HOP-18 NSCLC, with DMS 273 small cell lung, in the test with KM20L2 colon and in the test with LXFL 529 NSCLC was greater than 100 µM in each case.

As to `OC(CN1CC1)C(O)CN1CC1` (stereo unspecified), in the test with T-47D breast, the GI50 was greater than 50 µg/mL and the TGI is greater than 50 µg/mL. Further, in the test on MDA-N, the GI50 is greater than 50 µg/mL and the TGI was greater than 50 µg/mL.

On to `C#CCC(N)(CO)C(=O)O` (stereo unspecified), for which the TGI in the test on M19-MEL melanoma, in the test on HOP-18 NSCLC, in the test with DMS 273 small cell lung, in the test on LXFL 529 NSCLC and with DMS 114 small cell lung was greater than 100 µM each time.

Turning to `CC(=O)[CH-]C(C)=O.[CH2-]C.[CH2-]C.[Tl+3]`, the GI50 in the test with HOP-18 NSCLC, in the test with DMS 273 small cell lung, in the test on KM20L2 colon, in the test with LXFL 529 NSCLC and in the test on DMS 114 small cell lung was greater than 100 µM throughout. For the same compound, the TGI with HOP-18 NSCLC, in the test with DMS 273 small cell lung, with KM20L2 colon, in the test on LXFL 529 NSCLC and in the test with DMS 114 small cell lung was greater than 100 µM each time.

`CCOC(=O)C(=O)Nc1ccccc1C(F)(F)F`: the TGI with HOP-18 NSCLC, with DMS 273 small cell lung, in the test with KM20L2 colon and in the test with LXFL 529 NSCLC was greater than 100 µM in each case.

As to `O=C1C(SCCO)=C(SCCO)C(=O)c2ccccc21`, the TGI in the test with T-47D breast was greater than 27.5 µM; in the test on MDA-N, 0.314 µM.

In the case of `NC(=O)/C=C/C(=O)O`, the TGI with M19-MEL melanoma, in the test with HOP-18 NSCLC, in the test on DMS 273 small cell lung, in the test on LXFL 529 NSCLC and in the test on DMS 114 small cell lung was greater than 5000 µM each time.

Regarding `OC(c1ccc(Br)cc1)(c1cccs1)C1CC1` (stereo unspecified), the TGI in the test with T-47D breast worked out at 88.5 µM; in the test with MDA-N it was 41.8 µM.

On to `COc1cc2cnc3c4ccccc4ccc3c2cc1OC`, for which the TGI in the test on M19-MEL melanoma, in the test on KM20L2 colon, in the test with LXFL 529 NSCLC and in the test with DMS 114 small cell lung was greater than 100 µM in each case.

Take `Cc1cc2c(Br)cc(Br)c(O)c2nc1C(=O)c1ccccc1`: the TGI with T-47D breast is 74.6 µM; in the test on M19-MEL melanoma, 32.2 µM; in the test with MDA-N, 96.3 µM; in the test with HOP-18 NSCLC, 70.4 µM; with DMS 273 small cell lung, 42.3 µM; in the test with KM20L2 colon it was 82.5 µM. In addition, the figures for the TGI in the test with LXFL 529 NSCLC and in the test with DMS 114 small cell lung were 80.6 µM and 97.7 µM, respectively.

With `COc1cccc(/C=C2\CCC(C)(CN(C)C)C2=O)c1` (stereo unspecified), the TGI in the test on M19-MEL melanoma, in the test on HOP-18 NSCLC, with DMS 273 small cell lung, in the test on KM20L2 colon and in the test on DMS 114 small cell lung was greater than 100 µM in each case.

`CNC(SC)=C1C(=O)OC(C)(C)OC1=O`: the TGI in the test on M19-MEL melanoma, in the test on HOP-18 NSCLC, in the test on DMS 273 small cell lung, in the test with KM20L2 colon, with LXFL 529 NSCLC and in the test on DMS 114 small cell lung was greater than 100 µM throughout.

In turn, `COc1ccccc1-c1cc(=O)c2ccc(C)nc2[nH]1` gave a TGI in the test on T-47D breast greater than 100 µM. For the same compound, in the test with MDA-N, the GI50 is 20.1 µM and the TGI was 41.5 µM.

Regarding `O=c1ncccn1C1C=C(CO)C(O)C1O` (stereo unspecified), the TGI in the test on HOP-18 NSCLC, with DMS 273 small cell lung, with KM20L2 colon, in the test with LXFL 529 NSCLC and in the test with DMS 114 small cell lung was greater than 50 µM each time.

As to `CC1(C)OC2COC3(CNO)OC(C)(C)OC3C2O1` (stereo unspecified), the TGI in the test on M19-MEL melanoma, in the test on HOP-18 NSCLC, in the test with DMS 273 small cell lung and in the test with DMS 114 small cell lung was greater than 100 µM each time.

Turning to `COc1ccc(-c2nnc(N3CCN(C(=O)CN4CCN(c5ccc(OC)cc5)CC4)CC3)nc2-c2ccc(OC)cc2)cc1`, in the test on T-47D breast, the GI50 was 2780 nM and the TGI worked out at 9.36 µM.

Regarding `C[C@H](Cn1ncnn1)Nc1ncc2cc(Oc3ccc(F)cc3F)c(=O)n(C)c2n1`, in the test on T-47D breast, the GI50 is greater than 25000 nM and the TGI is greater than 25 µM.

Regarding `CN(C)Cc1c[nH]c2c(NCCN)c3c(c(NCCN)c12)C(=O)c1ccccc1C3=O`, in the test with T-47D breast, the GI50 was 1820 nM and the TGI is 14 µM.

Regarding `NC(N)=NS(=O)(=O)c1ccc(NC(=O)c2cccc3c(Nc4ccc(S(N)(=O)=O)cc4)c4ccccc4nc23)cc1`, the TGI in the test on M19-MEL melanoma, with HOP-18 NSCLC, in the test with DMS 273 small cell lung, in the test on KM20L2 colon, with LXFL 529 NSCLC and with DMS 114 small cell lung was greater than 100 µM throughout.

Regarding `COC(=O)/C(C#N)=C1\CCC(C(=O)OC)N1C` (stereo unspecified), the TGI with M19-MEL melanoma, with RXF-631 renal, in the test on DMS 273 small cell lung, in the test with KM20L2 colon and with DMS 114 small cell lung was greater than 100 µM each time.

On to `C=CCSc1nc2ccccc2c(=O)n1Cc1ccco1`, for which the TGI in the test with T-47D breast and in the test on MDA-N was greater than 100 µM throughout.

On to `OB1OCc2cc(/C=C/c3cccc(C(F)(F)F)c3)ccc21`, for which, in the test on T-47D breast, the GI50 is 425 nM and the TGI is greater than 100 µM.

On to `Cc1cc(Nc2nc(SCc3ccc(C(=O)Nc4ccc(F)cc4N)cc3)nn3cccc23)n[nH]1`, for which, in the test with T-47D breast, the GI50 is 1120 nM and the TGI came out at 52.6 µM.
